Laboratory results as given in patent US4011207A, “Des-(Ala^1, Gly^2,Lys^4 -Srif, Des-(Ala^1, Gly^2, Lys^4)-D-Trp^8 -Srif and intermediates” (American Home Products Corporation, priority 1976, dated 1977).
Where a name gives a salt, the structure may show the parent alone. Where a SMILES comes first, the peptide text is derived from it. Bridges are numbered along the chain shown (N, C = ends).

How the values were obtained:
Assay type in all cases: in vivo
[1] = system: growth hormone; assay: Growth hormone level by radioimmunoassay in nembutal-treated rats after subcutaneous injection
Protocol: (§1) The growth hormone activity of the compound of Example 2 was determined by injecting rats weighing about 150 g. first with nembutal intraperitoneally at a dose of 50 mg/kg then after 5 minutes injecting the rats subcutaneously with a solution of the compound of Example 2 in saline at a dose of 100 m.g. per rat. Blood samples are taken 15 minutes after injection with the compound of Example 2 and the growth hormone level determined by radioimmunoassay.
(§2) The activity of the product of Example 3 was determined by the same technique as the compound of Example 2. The dose given the test animals was 1 mg/kg. Growth hormone concentration was reduced to 28±4 ng/ml from the control level of 75±16 (p<0.01). The insulin concentration in micro units per milliliter was reduced marginally to 168±13 from the control level of 208±11 (p>0.05). The glucagon concentration in pico grams per milliliter was not effected, being 31±3 in the treated animals as opposed to 37±2 in the control animals.

[2] = system: insulin; assay: Insulin concentration in rats, same technique; conditions: dose 1 mg/kg, control level 208±11 (p>0.05), reduced marginally
Protocol: as §1, §2

[3] = system: glucagon; assay: Glucagon concentration in rats, same technique; conditions: dose 1 mg/kg, control 37±2, not effected
Protocol: as §1, §2

Compound	growth hormone level ([1]; rats about 150 g, nembutal 50 mg/kg i.p., compound s.c. in saline at 100 m.g. per rat, blood 15 minutes after injection, control 212±26 ng/ml)	Growth hormone concentration ([1]; rats, dose 1 mg/kg, same technique, control level 75±16 (p<0.01))	insulin concentration [2]	glucagon concentration [3]
C[C@@H](O)[C@@H]1NC(=O)[C@H](Cc2ccccc2)NC(=O)[C@H]([C@@H](C)O)NC(=O)[C@H](CCCCN)NC(=O)[C@H](Cc2c[nH]c3ccccc23)NC(=O)[C@H](Cc2ccccc2)NC(=O)[C@H](Cc2ccccc2)NC(=O)[C@H](CC(N)=O)NC(=O)[C@@H](N)CSSC[C@@H](C(=O)O)NC(=O)[C@H](CO)NC1=O [Example 2, L-Cysteinyl-L-asparaginyl-L-phenylalanyl-L-phenylalanyl-L-tryptophyl-L-lysyl-L-threonyl-L-phenylalanyl-L-threonyl-L-seryl-L-cysteine- (1,11 cyclic disulfide), diacetate salt] (H-CNFFWKTFTSC-OH; disulfide 1-11)	103 ± 13 ng/mL			
N-tert-Butyloxycarbonyl-S-p-methoxybenzyl-L-cysteinyl-L-asparaginyl-L-phenylalanyl-L-phenylalanyl-D-tryptophyl-ε-2-chlorobenzyloxycarbonyl-L-lysyl-O-benzyl-L-threonyl-L-phenylalanyl-O-benzyl-L-threonyl-O-benzyl-L-seryl-S-p-methoxybenzyl-L-cysteinyl-hydroxymethyl polystyrene [Example 3]		28 ± 4 ng/mL	168±13 micro units per milliliter	31±3 pico grams per milliliter
